This is an account of results in US8278455B2, “5- or 6-substituted benzimidazole derivatives as inhibitors of respiratory syncytial virus replication” (Janssen Pharmaceutica N.V., priority 2003, dated 2012).

Structures are written as SMILES. pEC50: −log10 of the molar value.

The subject of data set [1] is Respiratory Syncytial Virus. The experiment in a line: In vitro screening for activity against Respiratory Syncytial Virus (MTT tetrazolium colorimetric assay, HeLa cells). The format is cell-based. The settings on record: human respiratory syncytial virus, 168 h; protection against RSV cytopathology in HeLa cells, 7 days after infection; pEC50 = −log of EC50 in molar units. Summed up: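 HeLa cells (4×10^5 cells/ml) added 2 h after ~100 TCID50 RSV to wells holding five-fold compound dilutions, in Eagle's medium with 5% FCS and 20 mM Hepes; mock-infected rows gave cytotoxicity. After 7 days at 37 °C, MTT read at 540 minus 690 nm; EC50/CC50 from dose-response, reported as pEC50 categories.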
(In general: Tetrazolium dyes change colour on reduction, which living cells bring about.)

The compound `Cc1ccc(O)c(Cn2c(NC3CCN(CCN)CC3)nc3ccc(CCc4ccccc4)cc32)n1.Cl` [Compound 143, 2-{2-[1-(2-amino-ethyl)-piperidin-4-ylamino]-6-phenethyl-benzoimidazol-1-ylmethyl}-6-methyl-pyridin-3-ol hydrochloride salt] returned a melting point of 181 °C. Also, the pEC50 in data set [1] is 9.00.
Compound `Cc1ccc(O)c(Cn2c(NC3CCN(CCN)CC3)nc3ccc(C=Cc4ccccc4)cc32)n1.Cl` [Compound 146, 2-{2-[1-(2-Amino-ethyl)-piperidin-4-ylamino]-6-styryl-benzoimidazol-1-ylmethyl}-6-methyl-pyridin-3-ol hydrochloride salt] showed a melting point of 260 °C. Moreover, in data set [1], the pEC50 is 8.90.
The like results for `Cc1cc(C)cc(NCc2ccc3nc(NCC(O)CO)n(Cc4nc(C)ccc4O)c3c2)c1` (centres unmarked) [Compound 175, 3-[6-[(3,5-dimethyl-phenylamino)methyl]-1-(3-hydroxy-6-methyl-pyridin-2-ylmethyl)-1H-benzoimidazol-2-ylamino]-propane-1,2-diol] were, in that order, 128 °C and 7.50.
The like results for `Cc1cccc(CNc2ccc3nc(NC4CCN(C)CC4)n(Cc4nc(C)ccc4O)c3c2)c1` [Compound 28, 6-methyl-2-[6-(3-methyl-benzylamino)-2-(1-methyl-piperidin-4-ylamino)-benzoimidazol-1-ylmethyl]-pyridin-3-ol] were, in that order, 240 °C and 7.80.
`Cc1cccc(NCc2cc(C)c3nc(NC4CCN(CCO)CC4)n(Cc4nc(C)ccc4O)c3c2)c1` [Compound 171, 2-[2-[1-(2-Hydroxy-ethyl)-piperidin-4-ylamino]-4-methyl-6-(m-tolylamino-methyl)-benzoimidazol-1-ylmethyl]-6-methyl-pyridin-3-ol] registered a melting point of 123 °C. The compound also showed a pEC50 in data set [1] of 8.50.
The like results for `Cc1ccc(O)c(Cn2c(NC3CCN(CCO)CC3)nc3ccc(CCCN)cc32)n1.Cl` [Compound 160, 2-{6-(3-Amino-propyl)-2-[1-(2-hydroxy-ethyl)-piperidin-4-ylamino]-benzoimidazol-1-ylmethyl}-6-methyl-pyridin-3-ol hydrochloride salt] were, in that order, 185 °C and 7.90.
With `Cc1cccc(NC(=O)c2ccc3nc(NC4CCN(C)CC4)n(Cc4nc(C)ccc4O)c3c2)c1` [Compound 116, 3-(3-hydroxy-6-methyl-pyridin-2-ylmethyl)-2-(1-methyl-piperidin-4-ylamino)-3H-benzoimidazole-5-carboxylic acid m-tolylamide], the melting point amounted to 172 °C. Besides, the negative-log EC50 (pEC50) in data set [1] was 5.10.
The like results for `Cc1cc(C)cc(NCc2ccc3nc(NCCCN4CCN(C)CC4)n(Cc4nc(C)ccc4O)c3c2)c1` [Compound 174, 2-{6-[(3,5-Dimethyl-phenylamino)-methyl]-2-[3-(4-methyl-piperazin-1-yl)-propylamino]-benzoimidazol-1-ylmethyl}-6-methyl-pyridin-3-ol] were, in that order, 150 °C and 8.40.
Take `COc1ccc(CCNc2nc3ccc(CNc4cc(C)cc(C)c4)cc3n2Cc2nc(C)ccc2O)cc1` [Compound 190, 2-{6-[(3,5-Dimethyl-phenylamino)-methyl]-2-[2-(4-methoxy-phenyl)-ethylamino]-benzoimidazol-1-ylmethyl}-6-methyl-pyridin-3-ol]: the melting point was 178 °C. The negative logarithm of the EC50 (pEC50) in data set [1] was less than 4.00.
The like results for `Cc1cc(C)cc(NCc2ccc3nc(NCCCN4CCCCC4)n(Cc4nc(C)ccc4O)c3c2)c1` [Compound 173, 2-[6-[(3,5-dimethyl-phenylamino)-methyl]-2-(3-piperidin-1-yl-propylamino)-benzoimidazol-1-ylmethyl]-6-methyl-pyridin-3-ol] were, in that order, 161 °C and 8.80.

A word on the melting point: it is the temperature, or range, at which the solid turns liquid. In general, pEC50 refers to the EC50 on a negative log10 scale, so that one unit is a factor of ten. A high value points to a small EC50.
